# Patent publication US20260345568A1, “INHIBITING MONOACYLGLYCEROL LIPASE (MAGL)” (PSY THERAPEUTICS, INC., priority 2023, published 2026)
# Target: T1, human MAGL (Homo sapiens, UniProt Q99685)
# T1 construct: recombinant MAGL enzyme (aa 2-303 RBC, internal preparation)
# T1 sequence (Q99685 2-303): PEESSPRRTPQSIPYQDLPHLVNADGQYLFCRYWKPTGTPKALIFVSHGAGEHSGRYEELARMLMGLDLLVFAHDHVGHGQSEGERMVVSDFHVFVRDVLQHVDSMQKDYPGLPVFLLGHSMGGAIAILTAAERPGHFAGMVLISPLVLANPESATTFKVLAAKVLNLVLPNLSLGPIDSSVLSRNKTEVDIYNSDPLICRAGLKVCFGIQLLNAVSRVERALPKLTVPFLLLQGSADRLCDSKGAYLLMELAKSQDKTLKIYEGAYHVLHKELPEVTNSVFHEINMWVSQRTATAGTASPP
# Assay: MAGL inhibition potency, 4-nitrophenyl acetate (4NPA) hydrolysis, absorbance 405 nm (Example A)
# Type: biochemical
# Conditions: Method 2: Cayman Chemical MAGL enzyme, 10 nM; 4NPA substrate; read-out: Potency
# Text: The potency of certain compounds for inhibiting MAGL were obtained using the following assays.
# The monoacylglycerol lipase inhibitor screening assay kit from Cayman Chemical was used to measure the MAGL potency for the compounds in Tables A-1, A-2, A-3.
# Cayman's Monoacylglycerol Lipase Inhibitor Screening Assay provides a method for screening human MAGL inhibitors. MAGL hydrolyzes 4-nitrophenylacetate resulting in a yellow product, 4-nitrophenol, with an absorbance of 405-412 nm.
# MAGL Inhibition was measured by the following assay. Monoacylglycerol Lipase (MAGL) inhibition was measured using recombinant MAGL enzyme (aa 2-303 RBC, internal preparation) and the substrate 4-Nitrophenyl acetate (4NPA) (Sigma-Aldrich, N8130). Hydrolysis of the substrate in the presence of the enzyme was measured by absorbance at 405 nm. 10 μL of assay buffer (10 mM Tris pH 7.5, 1 mM EDTA, 0.9% DMSO) was added to a black 384-well non-binding plate with clear bottom (Greiner, 781906) for each reaction. Compounds were dispensed using an acoustic liquid handler (Echo, Beckman) at 45 nL (0.1% DMSO). Test compounds and control for MAGL inhibitor JZL-184 (Caymen Chemical, 13158) were tested in 10-concentration IC50 mode with 3-fold serial dilution at a starting concentration of […]. DMSO control wells were included for reference. A 10.8 nM (1.8×) MAGL mix in assay buffer was prepared, with 25 μL added to each reaction well, for a final assay concentration of […]. No enzyme wells received 25 μL of buffer. Plate was incubated at room temperature for 30 minutes. 35 mM solution of 4NPA in methanol was prepared daily A 4.5×4NPA substrate solution was prepared in assay buffer and 10 μL was added to each reaction well, for a final assay concentration of 0.25 mM. Plate was spun for 1 minute at 1000 rpm before measuring absorbance using a CLARIOstar plate reader (BMG Labtech). A kinetic reading at 405 nm was done every minute for 30 minutes. Data was analyzed using the linear slope of the reaction progress curve and the average of the no-enzyme wells (background) was subtracted from the data. The background-subtracted slope data was converted to % activity using the average of wells with enzyme and DMSO vehicle. IC50s were calculated using GraphPad software (Sigmoidal dose response, variable slope equation).
# Table 8 provides potency measurements of MAGL inhibition measured using the Potency Assay of Example A above, with the following modifications described in Table C.
# The number after each letter for potency measurement value indicates the Method from Table C that was used to obtain that measurement value (e.g. “A(1)” indicates an IC50 measurement of <50 nM obtained from the Method 1 of Example A in Table C).
row,IC50,Structure (SMILES)
1,> 10000 nM,"Cc1cc(C2CC3(C2)CN([C@H]2CCOc4ccccc42)C3)n(-c2ccccc2C)n1 [Compound C4, reference compound]"

# Same assay, conditions: Method 12: Reaction Biology MAGL enzyme, 15 nM; 4NPA substrate; read-out: MAGL Potency (Detection Method)
row,IC50,Structure (SMILES)
1,150 to 500 nM,"O=C(c1cc(O)ccc1F)N1CC2(CC(n3ncc(C(F)(F)F)c3-c3cccnc3)C2)C1 [Compound 1, (2-fluoro-5-hydroxyphenyl){6-[5-(3-pyridyl)-4-(trifluoromethyl)-1-pyrazolyl]-2-aza-2-spiro[3.3]heptyl}methanone]"
2,150 to 500 nM,COc1ncccc1-c1nn(C2CC3(C2)CN(C(=O)c2cc(O)ccc2F)C3)cc1C(F)(F)F [Compound 20]
3,50 to 150 nM,COc1ccc(-c2c(C(F)(F)F)cnn2C2CC3(C2)CN(C(=O)c2cc(O)ccc2F)C3)cn1 [Compound 27]
4,50 to 150 nM,"O=C(c1cc(O)ccc1F)N1CC2(CC(n3nc(-c4cncc(F)c4)cc3C(F)(F)F)C2)C1 [Compound 14, (2-fluoro-5-hydroxyphenyl){6-[3-(5-fluoro-3-pyridyl)-5-(trifluoromethyl)-1-pyrazolyl]-2-aza-2-spiro[3.3]heptyl}methanone]"
5,150 to 500 nM,"O=C1CCC(c2c(C(F)(F)F)cnn2C2CC3(C2)CN(C(=O)c2cc(O)ccc2F)C3)CN1 (centres unmarked) [Compound 41, 5-(1-{2-(2-fluoro-5-hydroxybenzoyl)-2-aza-6-spiro[3.3]heptyl}-4-(trifluoromethyl)-5-pyrazolyl)-2-piperidinone]"
6,< 50 nM,"COc1ncccc1-c1c(C(F)(F)F)cnn1C1CC2(C1)CN(C(=O)c1cc(O)ccc1F)C2 [Compound 19, (2-fluoro-5-hydroxyphenyl){6-[5-(2-methoxy-3-pyridyl)-4-(trifluoromethyl)-1-pyrazolyl]-2-aza-2-spiro[3.3]heptyl}methanone]"
7,1000 to 5100 nM,"O=C(c1ccc(F)cc1OC1CC1)N1CC2(CC(N3C=C(c4ccccc4F)CC3=O)C2)C1 [Compound 33, 1-{2-(2-cyclopropoxy-4-fluorobenzoyl)-2-aza-6-spiro[3.3]heptyl}-3-(o-fluorophenyl)-2-pyrrolin-5-one]"
8,50 to 150 nM,COc1ncccc1-c1cc(C(F)(F)F)nn1C1CC2(C1)CN(C(=O)c1cc(O)ccc1F)C2 [Compound 16]
9,150 to 500 nM,O=C(c1cc(O)ccc1F)N1CC2(CC(n3nc(C(F)(F)F)cc3-c3cncc(F)c3)C2)C1 [Compound 13]
10,1000 to 5100 nM,"O=C(c1cc(O)ccc1F)N1CC2(CC(n3ncc(C(F)(F)F)c3-c3ccc[nH]c3=O)C2)C1 [Compound 29, 3-(1-{2-(2-fluoro-5-hydroxybenzoyl)-2-aza-6-spiro[3.3]heptyl}-4-(trifluoromethyl)-5-pyrazolyl)-2(1H)-pyridinone]"
11,150 to 500 nM,"O=C(c1cc(O)ccc1F)N1CC2(CC(n3nc(C(F)(F)F)cc3-c3ccncc3)C2)C1 [Compound 7, (2-fluoro-5-hydroxyphenyl){6-[5-(4-pyridyl)-3-(trifluoromethyl)-1-pyrazolyl]-2-aza-2-spiro[3.3]heptyl}methanone]"
12,< 50 nM,"COc1ccc(-c2nn(C3CC4(C3)CN(C(=O)c3cc(O)ccc3F)C4)cc2C(F)(F)F)cn1 [Compound 28, (2-fluoro-5-hydroxyphenyl){6-[3-(6-methoxy-3-pyridyl)-4-(trifluoromethyl)-1-pyrazolyl]-2-aza-2-spiro[3.3]heptyl}methanone]"
13,< 50 nM,"O=C(c1cc(O)ccc1F)N1CC2(CC(n3nc(-c4cccnc4)cc3C(F)(F)F)C2)C1 [Compound 4, (2-fluoro-5-hydroxyphenyl){6-[3-(3-pyridyl)-5-(trifluoromethyl)-1-pyrazolyl]-2-aza-2-spiro[3.3]heptyl}methanone]"
14,150 to 500 nM,"COc1ccc(-c2cc(C(F)(F)F)nn2C2CC3(C2)CN(C(=O)c2cc(O)ccc2F)C3)cn1 [Compound 18, (2-fluoro-5-hydroxyphenyl) (6-(5-(6-methoxypyridin-3-yl)-3-(trifluoromethyl)-1H-pyrazol-1-yl)-2-azaspiro [3.3]heptan-2-yl) methanone]"
15,50 to 150 nM,O=C(c1cc(O)ccc1F)N1CC2(CC(n3cc(C(F)(F)F)c(-c4ccc(=O)[nH]c4)n3)C2)C1 [Compound 32]
16,150 to 500 nM,"O=C(c1cc(O)ccc1F)N1CC2(CC(n3nc(-c4ccccn4)cc3C(F)(F)F)C2)C1 [Compound 6, (2-fluoro-5-hydroxyphenyl){6-[3-(2-pyridyl)-5-(trifluoromethyl)-1-pyrazolyl]-2-aza-2-spiro[3.3]heptyl}methanone]"
17,1000 to 5100 nM,"O=C(c1cc(O)ccc1F)N1CC2(CC(n3ncc(C(F)(F)F)c3-c3ccc(=O)[nH]c3)C2)C1 [Compound 31, 5-(1-{2-(2-fluoro-5-hydroxybenzoyl)-2-aza-6-spiro[3.3]heptyl}-4-(trifluoromethyl)-5-pyrazolyl)-2(1H)-pyridinone]"
18,< 50 nM,"O=C(c1cc(O)ccc1F)N1CC2(CC(n3nc(-c4ccncc4)cc3C(F)(F)F)C2)C1 [Compound 8, (2-fluoro-5-hydroxyphenyl){6-[3-(4-pyridyl)-5-(trifluoromethyl)-1-pyrazolyl]-2-aza-2-spiro[3.3]heptyl}methanone]"
19,150 to 500 nM,"O=C(c1cc(O)ccc1F)N1CC2(CC(n3nc(C(F)(F)F)cc3-c3ccc(=O)[nH]c3)C2)C1 [Compound 9, 5-(1-(2-(2-fluoro-5-hydroxybenzoyl)-2-azaspiro [3.3]heptan-6-yl)-3-(trifluoromethyl)-1H-pyrazol-5-yl) pyridin-2(1H)-one]"
20,< 50 nM,"O=C(c1cc(O)ccc1F)N1CC2(CC(n3cc(C(F)(F)F)c(-c4cccnc4)n3)C2)C1 [Compound 2, (2-fluoro-5-hydroxyphenyl){6-[3-(3-pyridyl)-4-(trifluoromethyl)-1-pyrazolyl]-2-aza-2-spiro[3.3]heptyl}methanone]"
21,50 to 150 nM,"O=C(c1cc(O)ccc1F)N1CC2(CC(n3nc(C(F)(F)F)cc3-c3cccnc3)C2)C1 [Compound 3, (2-fluoro-5-hydroxyphenyl){6-[5-(3-pyridyl)-3-(trifluoromethyl)-1-pyrazolyl]-2-aza-2-spiro[3.3]heptyl}methanone]"
22,< 50 nM,"O=C(c1cc(O)ccc1F)N1CC2(CC(n3cc(C(F)(F)F)c(-c4cccnc4F)n3)C2)C1 [Compound 22, (2-fluoro-5-hydroxyphenyl){6-[3-(2-fluoro-3-pyridyl)-4-(trifluoromethyl)-1-pyrazolyl]-2-aza-2-spiro[3.3]heptyl}methanone]"
23,150 to 500 nM,"O=C(c1cc(O)ccc1F)N1CC2(CC(n3nc(C(F)(F)F)cc3-c3ccc[nH]c3=O)C2)C1 [Compound 11, 3-(1-(2-(2-fluoro-5-hydroxybenzoyl)-2-azaspiro [3.3]heptan-6-yl)-3-(trifluoromethyl)-1H-pyrazol-5-yl) pyridin-2(1H)-one]"
24,150 to 500 nM,O=C(c1cc(O)ccc1F)N1CC2(CC(n3ncc(C(F)(F)F)c3-c3cccnc3F)C2)C1 [Compound 21]
25,50 to 150 nM,"O=C(c1cc(O)ccc1F)N1CC2(CC(n3cc(C(F)(F)F)c(-c4ccc[nH]c4=O)n3)C2)C1 [Compound 30, 3-(1-{2-(2-fluoro-5-hydroxybenzoyl)-2-aza-6-spiro[3.3]heptyl}-4-(trifluoromethyl)-3-pyrazolyl)-2(1H)-pyridinone]"
